Earlier results on two compounds are cited in paper PMC7019903 (Viruses, 2020).

The data set has as its system HTNV. The settings on record: read-out: EC50 against HTNV; cited from earlier work.

Each structure is given as a SMILES string.

The term EC50 denotes the concentration needed to bring the measured effect to its halfway point. As to `C#Cc1ncn([C@@H]2O[C@H](CO)[C@@H](O)[C@H]2O)n1` [ETAR, 1-beta-d-ribofuranosyl-3-ethynyl-[1,2,4] triazole], the EC50 was 10 µM.

Turning to `NC(=O)c1nc(F)c[nH]c1=O` [Favipiravir], the EC50 was 151 µM.
